From patent US20230146233A1, “A CLASS OF POLYCYCLIC COMPOUNDS INHIBITING RNA HELICASE DHX33 AND THE APPLICATION THEREOF” (Shenzhen KeYe Life Technologies, Co., Ltd, priority 2020, published 2023)

Tests used:
[1] = system: U251-MG cells; test: Half-maximal cell-inhibitory concentration on U251-MG cells (CCK-8); format: cell-based; settings: Homo sapiens, U-251, U251-MG cells (DHX33-overexpressing cancer cell strain), 48 hours, read-out: IC50 (half-maximal inhibitory concentrations of compounds on U251-MG cells)
Procedure: U251-MG cells were purchased from the cell bank of the Chinese Academy of Sciences. Cells were cultured in MEM medium containing 10% fetal bovine serum (FBS), 2 mM L-glutammie, streptomycmn and penicillin. The growth conditions were set as follows: a humidified cell incubator (37° C., 5% CO2). Cells were passaged every 3 days and were discarded after 10 passages.
U251-MG cells (a […]-overexpressing cancer cell strain) were seeded on a 96-well plate at 1×10^4 cells/100 μl/well. After the cells were completely attached, the compounds were added to the cell culture medium at a concentration of 5 nM, 10 nM, 25 nM, 50 nM, 100 nM, […], 500 nM, 1000 nM, 2000 nM, […] or 20 μM, and the resulting mixture was uniformly mixed with a multichannel pipette. After the cells were incubated with the compound for 48 hours, CCK-8 reagent (Yeasen Biotechnology (Shanghai) Co., Ltd.) was added to the medium in the 96-well plate in accordance with the standard procedure. After being incubated for 2 hours, the plate was read with a microplate reader (OD=450 nm). The experiment was repeated three times, the inhibition curve of the compound at different concentrations was plotted, and the half-maximal inhibitory concentration (IC50) of the compound was calculated.

[2] = target: T1, DHX33 protein (Mus musculus, UniProt Q80VY9); test: Inhibition of the helicase activity of DHX33 protein in vitro; format: biochemical; settings: recombinant DHX33 protein, compound 1-1000 nM, 37° C., 60 minutes; read-out: IC50 (inhibitory effects of the compounds on the helicase activity of DHX33 protein)
T1 construct: purified full-length DHX33 protein; made in house; host or cells: E. coli BL-21pLysS (DE3)
T1 sequence (Q80VY9 1-698): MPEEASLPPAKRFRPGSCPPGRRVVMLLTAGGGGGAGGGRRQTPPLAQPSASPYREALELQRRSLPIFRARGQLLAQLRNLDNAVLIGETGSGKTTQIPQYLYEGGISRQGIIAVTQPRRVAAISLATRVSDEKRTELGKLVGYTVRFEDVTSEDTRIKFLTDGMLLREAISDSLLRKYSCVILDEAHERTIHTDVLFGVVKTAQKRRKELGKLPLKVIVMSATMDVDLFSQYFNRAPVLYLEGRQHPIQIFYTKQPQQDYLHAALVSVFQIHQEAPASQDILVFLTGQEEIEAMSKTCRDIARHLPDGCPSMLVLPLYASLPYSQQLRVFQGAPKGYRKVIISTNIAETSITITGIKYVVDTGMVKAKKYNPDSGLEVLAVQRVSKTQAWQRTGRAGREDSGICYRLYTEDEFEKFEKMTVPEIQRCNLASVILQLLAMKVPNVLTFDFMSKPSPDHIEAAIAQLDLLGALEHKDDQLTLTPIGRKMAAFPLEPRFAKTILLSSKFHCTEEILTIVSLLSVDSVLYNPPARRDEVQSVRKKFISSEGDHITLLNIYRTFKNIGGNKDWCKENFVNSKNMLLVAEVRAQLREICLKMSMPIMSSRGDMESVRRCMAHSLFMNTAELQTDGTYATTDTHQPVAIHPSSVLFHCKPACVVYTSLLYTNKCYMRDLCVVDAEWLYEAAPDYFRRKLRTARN
Procedure: Biochemistry. 2019:58 (4):250-8. RNA helicase gene (mouse DHX33 gene) was cloned into a pET32M-3C vector (between BamH I/Not I restriction sites). Afterward, the plasmid was transformed into BL-21pLysS (DE3) E. coli. 0.5 mM isopropyl 1-thio-βp-D-galactopyranoside (IPTG) was added, and the expression of the recombinant protein was induced at 16° C. for 16 hours. Cells were allowed to precipitate and were resuspended in a cell lysis buffer [50 mM Tris-HCl (pH7.2), 150 mM NaCl, 1% Triton X-100, and 50 mM imidazole supplemented with a protease inhibitor]. Thereafter, cells were subjected to ultrasonic treatment and centrifuged at a rotation speed of 13000 rpm for 25 minutes. The supernatant was incubated with the nickel-nitrilotriacetic acid beads equilibrated in Tris buffer, followed by sufficient washing. Thereafter, the purified protein was eluted with a solution of 300 mM imidazole in Tris buffer, and was then subjected to dialysis against an imidazole-free Tris buffer at 4° C. overnight.
The components involved in the reaction for testing the helicase activity were added to a 96-well opaque white plate. The method was outlined as follows. The 96-well plate was coated with neutravidin at a final concentration of 10 μg/mL (100 μl/well) overnight at 4° C. Afterwards, the neutravidin-coated plate was blocked with 100 μL of 0.1% (w/v) BSA (dissolved in normal PBS) at 22° C. for 2 hours. After washing, a DNA duplex (2.5 ng) that was resulted from the annealing of two single-stranded DNA oligonucleotides (the sequence of one single strand was biotin-labeled 5′-[…]-3′; and the sequence of the other single strand was DIG-labeled 5′-[…]-3′) [the annealing reaction was carried out in PBS (pH 7.0) containing 1M NaCl] was added, and the resulting mixture was incubated at 22° C. for 4 hours. After the addition of 90 μL of the reaction mixture, the helicase reaction was initiated [0.25 pig of purified full-length DHX33 protein, dissolved in 25 mM 4-MOPS (pH 7.0), 5 mM ATP 2 mM DTT, 3 mM MnCl2 and 100 μg/mL BSA]. The reaction was conducted at 37° C. for 60 minutes. After being washed, each well was incubated with a blocking solution [10% (w/v) BSA in 0.1 M maleic acid and 0.15 M NaCl (pH 7.5)] for 30 minutes, and was then incubated with 20 μL of antibody solution (anti-DIG-AP, Roche, in blocking buffer) for 30 minutes. After being washed with 100 μL of detection buffer [0.1 M Tris-HCl and 0.1 M NaCl (pH 9.5)], each well was added with 1 μL of chemiluminescent substrate (CSPD-0.25 mM), and the plate was incubated at 17° C. for 5 minutes. Afterwards, the plate was patted dry and incubated at 37° C. for 30 minutes. The remaining DIG-AP marker control in each well was counted for 10 minutes by a luminescence multi-well plate reader (Enspire, PerkinElmer). Higher reading indicated weaker helicase activity.
Positive control and negative controls were set for this acticity assay. Among them, one negative control group, which differed from the experimental group only in that the former was not added with ATP (other conditions were the same as the experimental group), was used for the comparison with the experimental group; another negative control group, which differed from the experimental group only in that the former was not added with DHX33 protein (other conditions were the same as the experimental group), was used for the comparison with the experimental group. The positive control group was set for the comparison with the wild-type DHX33 protein (standard substance).
Biochemistry. 2019:58 (4):250-8.
Compounds having a series of concentration (the concentrations were set at 1 nM, 5 nM, 10 nM, 20 nM, 50 nM, 100 nM, 250 nM, 500 nM, and 1000 nM) were used to conduct the helicase activity assay of […] protein in vitro. The half-maximal inhibitory concentrations of the compounds of the present disclosure on the helicase activity of […] protein were as shown in Table 1.

IC50 [1]	IC50 [2]	SMILES
100 to 1000 nM	20 to 100 nM	COc1ccc2nc(/C(C#N)=C/c3cc(C)n(-c4oc(C)c(C)c4C#N)c3C)[nH]c2c1 [AB24202, (E)-2-(3-(2-cyano-2-(6-methoxy-1H-benzo[d]imidazol-2-yl)vinyl)-2,5-dimethyl-1H-pyrrol-1-yl)-4,5-dimethylfuran-3-carbonitrile]
1000 to 5000 nM	100 to 400 nM	Cc1oc(-n2c(C)cc(/C=C(\C#N)c3nc4ccc(F)cc4[nH]3)c2C)c(C#N)c1C [AB24205]
1000 to 5000 nM	100 to 400 nM	Cc1oc(-n2c(C)cc(/C=C(\C#N)c3nc4ccc(C(F)(F)F)cc4[nH]3)c2C)c(C#N)c1C [AB24243, (E)-2-(3-(2-cyano-2-(6-(trifluoromethyl)-1H-benzo[d]imidazol-2-yl)vinyl)-2,5-dimethyl-1H-pyrrol-1-yl)-4,5-dimethylfuran-3-carbonitrile]
5000 to 20000 nM	100 to 400 nM	Cc1oc(-n2c(C)cc(/C=C(\C#N)c3nc4ccncc4[nH]3)c2C)c(C#N)c1C [AB24249]
< 100 nM	< 20 nM	COc1cc2nc(/C(C#N)=C/c3cc(C)n(-c4oc(C)c(C)c4C#N)c3C)[nH]c2cn1 [AB24254, (E)-2-(3-(2-cyano-2-(6-methoxy-3H-imidazo[4,5-c]pyridin-2-yl)vinyl)-2,5-dimethyl-1H-pyrrol-1-yl)-4,5-dimethylfuran-3-carbonitrile]
1000 to 5000 nM	100 to 400 nM	Cc1cc(/C=C(\C#N)c2nc3ccccc3[nH]2)c(C)n1-c1ccncc1 [AB24259]
1000 to 5000 nM	100 to 400 nM	Cc1sc(-n2c(C)cc(/C=C(\C#N)c3nc4ccccc4[nH]3)c2C)c(C#N)c1C [AB24264, (E)-2-(3-(2-(1-(1-H-benzo[d]imidazol-2-yl]-2-cyanovinyl])-2,5-dimethyl-1H-pyrrol-1-yl)-4,5-dimethylthiophene-3-carbonitrile]
100 to 1000 nM	20 to 100 nM	Cc1cc(C#N)c(-n2c(C)cc(/C=C(\C#N)c3nc4ccccc4[nH]3)c2C)s1 [AB24270, (E)-2-(3-(2-(1H-benzo[d]imidazol-2-yl)-2-cyanovinyl)-2,5-dimethyl-1H-pyrrol-1-yl)-5-methylthiophene-3-carbonitrile]
1000 to 5000 nM	100 to 400 nM	Cc1cc(/C=C(\C#N)c2nc3ccccc3[nH]2)c(C)n1-c1oc(-c2ccccc2)cc1C#N [AB24283, (E)-2-(3-(2-(1H-benzo[d]imidazol-2-yl)-2-cyanovinyl)-2,5-dimethyl-1H-pyrrol-1-yl)-5-phenylfuran-3-carbonitrile]
< 100 nM	< 20 nM	COc1cc2nc(/C(C#N)=C/c3cc(C)n(-c4sc(C)cc4C#N)c3C)[nH]c2cn1 [AB24288, (E)-2-(3-(2-cyano-2-(6-methoxy-3H-imidazo[4,5-c]pyridin-2-yl)vinyl)-2,5-dimethyl-1H-pyrrol-1-yl)-5-methylthiophene-3-carbonitrile]
100 to 1000 nM	20 to 100 nM	CCOC(=O)c1nc(C)sc1-n1c(C)cc(/C=C(\C#N)c2nc3cc(OC)ncc3[nH]2)c1C [AB24314, ethyl (E)-5-(3-(2-cyano-2-(6-methoxy-3H-imidazo[4,5-c]pyridin-2-yl)vinyl)-2,5-dimethyl-1H-pyrrol-1-yl)-2-methylthiazole-4-carboxylate]
100 to 1000 nM	< 20 nM	COc1ccc2nc(/C(C#N)=C/c3cc(C)n(-c4sc(C)cc4C#N)c3C)[nH]c2c1 [AB24321]
1000 to 5000 nM	100 to 400 nM	COC(=O)c1c(-n2c(C)cc(/C=C(\C#N)c3nc4ccc(OC)cc4[nH]3)c2C)sc(C)c1C [AB24322, methyl (E)-2-(3-(2-cyano-2-(6-methoxy-1H-benzo[d]imidazol-2-yl)vinyl)-2,5-dimethyl-1H-pyrrol-1-yl)-4,5-dimethylthiophene-3-carboxylate]
1000 to 5000 nM	20 to 100 nM	COC(=O)c1cc(C)c(-n2c(C)cc(/C=C(\C#N)c3nc4cc(OC)ncc4[nH]3)c2C)s1 [AB24335]
–	100 to 400 nM	COc1ccc2c(c1)[nH]c1cc(-c3cc(C)n(-c4sc(C)cc4C#N)c3C)ccc12 [AB24350, 2-(3-(7-methoxy-9H-carbazol-2-yl)-2,5-dimethyl-1H-pyrrol-1-yl)-5-methylthiophene-3-carbonitrile]
100 to 1000 nM	–	COc1ccc2nc(NC(=O)c3cc(C)n(-c4oc(C)c(C)c4C#N)c3C)[nH]c2c1 [AB29510, 1-(3-cyano-4,5-dimethylfuran-2-yl)-N-(6-methoxy-1H-benzo[d]imidazol-2-yl)-2,5-dimethyl-1H-pyrrole-3-carboxamide]
< 100 nM	–	COc1cc2nc(/C(C#N)=C/c3cc(C)n(Cc4ccncc4)c3C)[nH]c2cn1 [AB29512, (E)-3-(2,5-dimethyl-1-(pyridin-4-ylmethyl)-1H-pyrrol-3-yl)-2-(6-methoxy-3H-imidazo[4,5-c]pyridin-2-yl)acrylonitrile]
5000 to 20000 nM	–	COc1ccc2nc(NC(=O)c3cc(C)n(Cc4cnn(C)c4)c3C)[nH]c2c1 [AB29513, N-(6-methoxy-1H-benzo[d]imidazol-2-yl)-2,5-dimethyl-1-((1-methyl-1H-pyrazol-4-yl)methyl)-1H-pyrrole-3-carboxamide]
100 to 1000 nM	–	COC(=O)c1cc(Cl)sc1-n1c(C)cc(/C=C(\C#N)c2nc3cc(OC)ncc3[nH]2)c1C [AR24318]
